Results as given in ChEMBL document CHEMBL2010643 (Bioorg Med Chem Lett, 2012).
pIC50: −log10 of the molar value. Calls of active or inactive are those of the source. No cut-off for these calls is given here.

Columns and labels:
[1] = target: T1, Leucine-rich repeat serine/threonine-protein kinase 2 (Homo sapiens, UniProt Q5S007); test: Inhibition of wild-type LRRK2 expressed in HEK293 cells using nictide and [gamma32]ATP as substrate
[2] = target: T1, Leucine-rich repeat serine/threonine-protein kinase 2; test: Inhibition of wild type LRRK2 phosphorylation at Ser910 in human lymphoblastoid cells at 0.03 to 3 uM after 90 mins by Western blot analysis; format: cell-based
[3] = target: T1, Leucine-rich repeat serine/threonine-protein kinase 2; test: Inhibition of wild type LRRK2 phosphorylation at Ser935 in human lymphoblastoid cells at 0.03 to 3 uM after 90 mins by Western blot analysis; format: cell-based
Mus musculus [4] = test: Inhibition of LRRK2 phosphorylation at Ser910 in C57BL/6 mouse kidney at 100 mg/kg, po administered for 8 hrs followed by 2 hrs dosing; format: functional, organism-based; design: dose 100 mg/kg
Mus musculus [5] = test: Inhibition of LRRK2 phosphorylation at Ser935 in C57BL/6 mouse kidney at 100 mg/kg, po administered for 8 hrs followed by 2 hrs dosing; format: functional, organism-based; design: dose 100 mg/kg
Mus musculus [6] = test: Inhibition of LRRK2 phosphorylation at Ser910 in C57BL/6 mouse spleen at 100 mg/kg, po administered for 8 hrs followed by 2 hrs dosing; format: functional, organism-based; design: dose 100 mg/kg
Mus musculus [7] = test: Inhibition of LRRK2 phosphorylation at Ser935 in C57BL/6 mouse spleen at 100 mg/kg, po administered for 8 hrs followed by 2 hrs dosing; format: functional, organism-based; design: dose 100 mg/kg
[8] = target: T1, Leucine-rich repeat serine/threonine-protein kinase 2; details: HEK293; 0.03 to 3 uM
Description: Inhibition of wild-type LRRK2 phosphorylation at Ser935 expressed in HEK293 cells at 0.03 to 3 uM after 90 mins by immunoblot analysis

[9] = target: T1, Leucine-rich repeat serine/threonine-protein kinase 2; details: HEK293; 0.03 to 3 uM; remark: listed apart in the source
Description: Inhibition of wild-type LRRK2 phosphorylation at Ser910 expressed in HEK293 cells at 0.03 to 3 uM after 90 mins by immunoblot analysis

T1 sequence (Q5S007 whole entry): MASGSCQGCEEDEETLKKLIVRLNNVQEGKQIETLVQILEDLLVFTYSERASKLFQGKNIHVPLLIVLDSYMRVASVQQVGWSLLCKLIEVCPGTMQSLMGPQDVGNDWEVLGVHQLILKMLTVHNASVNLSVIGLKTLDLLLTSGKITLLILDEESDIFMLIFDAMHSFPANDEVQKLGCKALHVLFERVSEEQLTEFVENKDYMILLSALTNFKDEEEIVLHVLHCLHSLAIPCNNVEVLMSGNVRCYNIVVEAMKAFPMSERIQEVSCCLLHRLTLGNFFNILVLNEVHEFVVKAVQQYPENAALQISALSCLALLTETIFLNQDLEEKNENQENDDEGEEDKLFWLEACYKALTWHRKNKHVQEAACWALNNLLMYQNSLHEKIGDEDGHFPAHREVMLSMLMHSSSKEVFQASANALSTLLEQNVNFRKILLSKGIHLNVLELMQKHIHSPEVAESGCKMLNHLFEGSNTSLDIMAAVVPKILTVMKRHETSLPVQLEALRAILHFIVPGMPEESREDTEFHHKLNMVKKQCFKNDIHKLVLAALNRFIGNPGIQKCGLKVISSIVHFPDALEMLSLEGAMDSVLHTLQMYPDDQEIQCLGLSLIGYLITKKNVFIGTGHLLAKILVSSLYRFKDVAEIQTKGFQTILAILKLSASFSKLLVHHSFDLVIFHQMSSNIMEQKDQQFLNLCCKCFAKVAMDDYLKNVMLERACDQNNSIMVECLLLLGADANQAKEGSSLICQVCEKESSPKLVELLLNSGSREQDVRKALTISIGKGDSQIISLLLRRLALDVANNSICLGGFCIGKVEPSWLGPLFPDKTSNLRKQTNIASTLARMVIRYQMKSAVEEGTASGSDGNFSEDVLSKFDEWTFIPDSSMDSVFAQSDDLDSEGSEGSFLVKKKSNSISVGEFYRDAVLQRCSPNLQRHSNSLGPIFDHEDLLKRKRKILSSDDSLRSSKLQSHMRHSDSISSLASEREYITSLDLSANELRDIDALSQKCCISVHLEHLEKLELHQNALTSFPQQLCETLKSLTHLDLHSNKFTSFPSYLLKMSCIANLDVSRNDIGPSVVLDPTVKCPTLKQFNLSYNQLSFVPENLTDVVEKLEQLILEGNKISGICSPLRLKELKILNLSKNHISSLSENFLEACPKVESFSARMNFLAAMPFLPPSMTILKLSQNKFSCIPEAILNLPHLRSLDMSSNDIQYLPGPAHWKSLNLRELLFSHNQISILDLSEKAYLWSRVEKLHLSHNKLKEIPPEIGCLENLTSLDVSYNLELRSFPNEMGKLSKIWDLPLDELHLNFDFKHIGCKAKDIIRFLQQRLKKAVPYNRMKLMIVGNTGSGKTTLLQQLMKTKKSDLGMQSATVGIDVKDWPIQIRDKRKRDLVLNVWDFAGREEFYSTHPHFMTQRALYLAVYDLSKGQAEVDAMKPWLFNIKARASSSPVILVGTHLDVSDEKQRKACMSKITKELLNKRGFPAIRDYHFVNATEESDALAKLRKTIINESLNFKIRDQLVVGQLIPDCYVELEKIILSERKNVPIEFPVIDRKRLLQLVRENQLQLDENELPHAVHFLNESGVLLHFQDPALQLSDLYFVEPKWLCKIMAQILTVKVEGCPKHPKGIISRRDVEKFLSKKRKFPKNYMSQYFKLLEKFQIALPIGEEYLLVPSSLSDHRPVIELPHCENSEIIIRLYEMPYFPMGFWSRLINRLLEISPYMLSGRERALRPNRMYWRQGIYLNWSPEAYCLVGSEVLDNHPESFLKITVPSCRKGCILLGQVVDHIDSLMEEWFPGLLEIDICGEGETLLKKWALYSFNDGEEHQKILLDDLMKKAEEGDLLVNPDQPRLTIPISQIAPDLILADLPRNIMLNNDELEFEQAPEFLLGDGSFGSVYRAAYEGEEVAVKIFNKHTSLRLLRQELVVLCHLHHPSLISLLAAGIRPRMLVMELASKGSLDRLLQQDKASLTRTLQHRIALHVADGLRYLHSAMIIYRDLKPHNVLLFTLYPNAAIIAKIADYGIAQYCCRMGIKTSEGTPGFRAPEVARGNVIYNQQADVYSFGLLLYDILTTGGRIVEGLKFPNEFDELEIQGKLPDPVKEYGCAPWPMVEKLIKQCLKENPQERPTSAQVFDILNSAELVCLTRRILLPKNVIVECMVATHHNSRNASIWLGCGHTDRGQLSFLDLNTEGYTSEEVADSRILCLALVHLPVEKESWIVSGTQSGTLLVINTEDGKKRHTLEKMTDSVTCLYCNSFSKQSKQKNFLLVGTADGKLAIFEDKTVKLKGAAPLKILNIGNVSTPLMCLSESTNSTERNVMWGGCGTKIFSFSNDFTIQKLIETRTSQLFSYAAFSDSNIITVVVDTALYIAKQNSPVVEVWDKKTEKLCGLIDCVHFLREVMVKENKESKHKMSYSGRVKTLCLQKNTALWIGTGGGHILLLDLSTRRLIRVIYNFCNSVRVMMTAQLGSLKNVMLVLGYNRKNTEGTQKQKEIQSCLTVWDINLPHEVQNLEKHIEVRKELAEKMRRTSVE

Q: Which results are given for `COc1cc(C(=O)N2CCC(N3CCN(C)CC3)CC2)ccc1Nc1ncc2c(n1)N(C)c1ccccc1C(=O)N2C`?
A: pIC50 [1]: 7.89; inhibition [2]: Active; inhibition [3]: Active; inhibition (Mus musculus [4]): Active; inhibition (Mus musculus [5]): Active; inhibition (Mus musculus [6]): Active; inhibition (Mus musculus [7]): Active; inhibition [8]: Active; inhibition [9]: Active
